24 molecules from patent US11712438B2, “Phenyl derivatives as PGE2 receptor modulators” (IDORSIA PHARMACEUTICALS LTD, priority 2017, dated 2023) can be followed below.

Some targets named below: EP2 (Homo sapiens, UniProt P43116); PTRGER4 (EP4) (Homo sapiens, UniProt P35408); PTGER2 (EP2) (Homo sapiens, UniProt P43116); EP4 (Homo sapiens, UniProt P35408).
What all share (assay): cell-based

Sequence of EP2 (P43116 whole entry): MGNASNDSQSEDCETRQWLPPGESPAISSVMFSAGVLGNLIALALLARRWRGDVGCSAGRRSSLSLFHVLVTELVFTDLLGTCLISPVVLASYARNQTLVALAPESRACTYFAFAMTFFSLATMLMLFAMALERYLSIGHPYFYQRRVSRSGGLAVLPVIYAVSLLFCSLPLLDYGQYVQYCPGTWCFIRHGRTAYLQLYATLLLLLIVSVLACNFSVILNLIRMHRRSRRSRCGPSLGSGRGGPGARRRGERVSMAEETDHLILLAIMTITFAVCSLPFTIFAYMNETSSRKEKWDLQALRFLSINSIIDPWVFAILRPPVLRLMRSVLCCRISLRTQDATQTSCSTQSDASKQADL
Sequence of PTGER2 (EP2) (P43116 whole entry): as above
Sequence of EP4 (P35408 whole entry): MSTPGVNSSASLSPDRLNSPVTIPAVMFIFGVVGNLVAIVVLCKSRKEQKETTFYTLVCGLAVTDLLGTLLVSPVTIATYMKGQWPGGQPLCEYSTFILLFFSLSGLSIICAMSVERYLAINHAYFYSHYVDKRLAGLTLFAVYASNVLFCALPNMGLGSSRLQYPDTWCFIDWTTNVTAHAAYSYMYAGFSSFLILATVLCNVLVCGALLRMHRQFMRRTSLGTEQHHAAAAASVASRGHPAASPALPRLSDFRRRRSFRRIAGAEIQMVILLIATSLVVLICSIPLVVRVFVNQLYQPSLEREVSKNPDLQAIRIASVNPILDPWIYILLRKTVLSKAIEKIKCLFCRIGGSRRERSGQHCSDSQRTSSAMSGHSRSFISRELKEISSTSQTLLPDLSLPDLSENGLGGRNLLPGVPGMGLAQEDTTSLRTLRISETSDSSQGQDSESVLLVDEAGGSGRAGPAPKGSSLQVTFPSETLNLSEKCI
Sequence of PTRGER4 (EP4) (P35408 whole entry): as above

On to `O=C(O)c1ccc(-c2cc(NCCc3c(F)cc(Br)cc3F)ncn2)s1` [Example 26, 5-{6-[2-(4-Bromo-2,6-difluoro-phenyl)-ethylamino]-pyrimidin-4-yl}-thiophene-2-carboxylic acid], for which the IC50 came to 46 nM against EP2, 104 nM at PTRGER4 (EP4), 149 nM against PTGER2 (EP2) and 115 nM on EP4.

Take `CCOc1cc(-c2cc(NCCc3ccc(Br)c(Cl)c3)ncn2)sc1-c1noc(=O)[nH]1` [Example 106, 3-(5-{6-[2-(4-Bromo-3-chloro-phenyl)-ethylamino]-pyrimidin-4-yl}-3-ethoxy-thiophen-2-yl)-[1,2,4]oxadiazol-5(4H)-one]: the IC50 turned out to be 49 nM on EP2, 1 nM against PTRGER4 (EP4), 35 nM against PTGER2 (EP2) and 10 nM at EP4.

As to `CCOc1cc(-c2cc(NCCc3c(F)cc(Br)cc3F)ncn2)ccc1OCCC(=O)O` [Example 45, 3-(4-{6-[2-(4-Bromo-2,6-difluoro-phenyl)-ethylamino]-pyrimidin-4-yl}-2-ethoxy-phenoxy)-propionic acid], the half-inhibitory concentration (IC50) on EP2 was found to be 184 nM; against PTRGER4 (EP4), 50 nM; at PTGER2 (EP2), 81 nM; at EP4 it was 165 nM.

With `CCc1cc(-c2cc(NCCc3c(F)cc(Br)cc3F)ncn2)sc1C(=O)O` [Example 29, 5-{6-[2-(4-Bromo-2,6-difluoro-phenyl)-ethylamino]-pyrimidin-4-yl}-3-ethyl-thiophene-2-carboxylic acid], the IC50 at EP2 is 23 nM; on PTRGER4 (EP4) it was 20 nM; against PTGER2 (EP2), 29 nM; on EP4, 12 nM.

For `CCOc1cc(-c2cc(NCCc3ccc(Br)cc3)ncn2)sc1C(=O)O` [Example 54, 5-{6-[2-(4-Bromo-phenyl)-ethylamino]-pyrimidin-4-yl}-3-ethoxy-thiophene-2-carboxylic acid], the IC50 against EP2 was found to be 31 nM; at PTRGER4 (EP4), 17 nM; on PTGER2 (EP2) it was 60 nM; against EP4 it was 10 nM.

For `COc1cc(-c2noc(=O)[nH]2)ccc1-c1cc(NCCc2c(F)cc(Br)cc2F)ncn1` [Example 291, 3-(4-{6-[2-(4-Bromo-2,6-difluoro-phenyl)-ethylamino]-pyrimidin-4-yl}-3-methoxy-phenyl)-[1,2,4]oxadiazol-5(4H)-one], the half-inhibitory concentration (IC50) on EP2 turned out to be 774 nM; at PTRGER4 (EP4) it was 77 nM; against PTGER2 (EP2), 88 nM; on EP4, 154 nM.

As to `Cc1ccc(CCNc2cc(-c3cc(F)c(C(=O)O)s3)ncn2)cc1` [Example 1, 3-Fluoro-5-[6-(2-p-tolyl-ethylamino)-pyrimidin-4-yl]thiophene-2-carboxylic acid], the IC50 was determined as 86 nM on EP2, 402 nM against PTRGER4 (EP4), 240 nM against PTGER2 (EP2) and 65 nM at EP4.

In the case of `CCOc1cc(-c2cc(NCCc3ccc(Br)c(F)c3)ncn2)sc1-c1noc(=O)[nH]1` [Example 108, 3-(5-{6-[2-(4-Bromo-3-fluoro-phenyl)-ethylamino]-pyrimidin-4-yl}-3-ethoxy-thiophen-2-yl)-[1,2,4]oxadiazol-5(4H)-one], the IC50 on EP2 was found to be 113 nM; at PTRGER4 (EP4), 5 nM; on PTGER2 (EP2) it was 28 nM; on EP4, 15 nM.

For `CCOc1cc(-c2cc(NCCc3cc(F)c(Br)cc3C)ncn2)sc1-c1noc(=O)[nH]1` [Example 111, 3-(5-{6-[2-(4-Bromo-5-fluoro-2-methyl-phenyl)-ethylamino]-pyrimidin-4-yl}-3-ethoxy-thiophen-2yl)-[1,2,4]oxadiazol-5(4H)-one], the concentration for half-maximal inhibition (IC50) against EP2 was found to be 137 nM; against PTRGER4 (EP4), 6 nM; against PTGER2 (EP2) it was 31 nM; at EP4, 26 nM.

On to `CSc1cc(-c2cc(NCCc3ccc(C)c(C)c3)ncn2)ccc1C(=O)O` [Example 18, 4-{6-[2-(3,4-Dimethyl-phenyl)-ethylamino]-pyrimidin-4-yl}-2-methylsulfanyl-benzoic acid], for which the half-maximal inhibitory concentration (IC50) on EP2 is 130 nM; on PTRGER4 (EP4), 168 nM; on PTGER2 (EP2), 481 nM; on EP4 it was 173 nM.

In the case of `CC(C)Cc1cc(-c2cc(NCCc3c(F)cc(Br)cc3F)ncn2)ccc1CC(=O)O` [Example 244, (4-{6-[2-(4-Bromo-2,6-difluoro-phenyl)-ethylamino]-pyrimidin-4-yl}-2-isobutyl-phenyl)-acetic acid], the concentration for half-maximal inhibition (IC50) against EP2 was 1130 nM; against PTRGER4 (EP4), 251 nM; against PTGER2 (EP2) it was 364 nM; at EP4, 280 nM.

With `COc1cc(-c2cc(NCCc3c(F)cc(Br)cc3F)ncn2)sc1C(=O)O` [Example 176, 5-{6-[2-(4-Bromo-2,6-difluoro-phenyl)-ethylamino]-pyrimidin-4-yl}-3-methoxy-thiophene-2-carboxylic acid], the IC50 on EP2 was 9 nM; against PTRGER4 (EP4), 75 nM; against PTGER2 (EP2) it was 22 nM; against EP4, 6 nM.

For the molecule `CCOc1cc(-c2cc(NCCc3cccc(C(=O)OC)c3)ncn2)sc1C(=O)O` [Example 76, 3-Ethoxy-5-{6-[2-(3-methoxycarbonyl-phenyl)-ethylamino]-pyrimidin-4-yl}-thiophene-2-carboxylic acid], the half-maximal inhibitory concentration (IC50) amounted to 234 nM at EP2, 310 nM against PTRGER4 (EP4), 488 nM against PTGER2 (EP2) and 88 nM at EP4.

As for `CCOc1cc(-c2cc(NCCc3c(F)cc(Br)cc3F)ncn2)sc1-c1noc(=S)[nH]1` [Example 295, 3-(5-{6-[2-(4-Bromo-2,6-difluoro-phenyl)-ethylamino]-pyrimidin-4-yl}-3-ethoxy-thiophen-2-yl)-[1,2,4]oxadiazole-5(4H)-thione], the IC50 at EP2 is 84 nM; against PTRGER4 (EP4), 2 nM; at PTGER2 (EP2), 12 nM; against EP4 it was 2 nM.

As for `CCOc1cc(C(F)(F)F)ccc1CCNc1cc(-c2cc(OCC)c(-c3noc(=O)[nH]3)s2)ncn1` [Example 90, 3-(3-Ethoxy-5-{6-[2-(2-ethoxy-4-trifluoromethyl-phenyl)-ethylamino]-pyrimidin-4-yl}-thiophen-2yl)-[1,2,4]oxadiazol-5(4H)-one], the IC50 is 24 nM on EP2, 3 nM against PTRGER4 (EP4), 26 nM against PTGER2 (EP2) and 10 nM against EP4.

Turning to `CCOc1cc(-c2cc(NCCc3c(F)cc(Br)cc3F)ncn2)sc1CC(=O)O` [Example 48, (5-{6-[2-(4-Bromo-2,6-difluoro-phenyl)-ethylamino]-pyrimidin-4-yl}-3-ethoxy-thiophen-2-yl)-acetic acid], the half-maximal inhibitory concentration (IC50) at EP2 came to 46 nM; on PTRGER4 (EP4), 25 nM; against PTGER2 (EP2), 28 nM; on EP4 it was 51 nM.

For `CCCc1cc(-c2cc(NCCc3c(F)cc(Br)cc3F)ncn2)sc1CC(=O)O` [Example 314, (5-{6-[2-(4-Bromo-2,6-difluoro-phenyl)-ethylamino]-pyrimidin-4-yl}-3-propyl-thiophen-2-yl)-acetic acid], the IC50 against EP2 came out at 169 nM; on PTRGER4 (EP4) it was 61 nM; against PTGER2 (EP2), 55 nM; against EP4, 27 nM.

In the case of `CCOc1cc(-c2cc(NCCc3c(F)cc(Br)cc3F)ncn2)sc1-n1nn[nH]c1=O` [Example 294, 1-(5-{6-[2-(4-Bromo-2,6-difluoro-phenyl)-ethylamino]-pyrimidin-4-yl}-3-ethoxy-thiophen-2-yl)-1,4-dihydro-tetrazol-5-one], the half-maximal inhibitory concentration (IC50) at EP2 came out at 47 nM; on PTRGER4 (EP4), 18 nM; against PTGER2 (EP2) it was 27 nM; against EP4 it was 22 nM.

Consider `CCCCOc1cc(-c2cc(NCCc3c(F)cc(Br)cc3F)ncn2)ccc1C(=O)O` [Example 43, 4-{6-[2-(4-Bromo-2,6-difluoro-phenyl)-ethylamino]-pyrimidin-4-yl}-2-butoxy-benzoic acid], for which the concentration for half-maximal inhibition (IC50) at EP2 worked out at 66 nM; against PTRGER4 (EP4) it was 208 nM; against PTGER2 (EP2) it was 55 nM; against EP4, 514 nM.

For `CCOc1cc(-c2cc(NCCc3ccc(Br)cc3)ncn2)ccc1-c1noc(=O)[nH]1` [Example 15, 3-(4-{6-[2-(4-Bromo-phenyl)-ethylamino]-pyrimidin-4-yl}-2-ethoxy-phenyl)-[1,2,4]oxadiazol-5(4H)-one], the IC50 at EP2 is 198 nM; against PTRGER4 (EP4), 56 nM; against PTGER2 (EP2), 368 nM; at EP4, 42 nM.

Regarding `CCc1nc(-c2cc(NCCc3c(F)cc(Br)cc3F)ncn2)sc1-c1noc(=O)[nH]1` [Example 151, 3-(2-{6-[2-(4-Bromo-2,6-difluoro-phenyl)-ethylamino]-pyrimidin-4-yl}-4-ethyl-thiazol-5-yl)-[1,2,4]oxadiazol-5(4H)-one], the concentration for half-maximal inhibition (IC50) was determined as 43 nM against EP2, 3 nM against PTRGER4 (EP4), 69 nM on PTGER2 (EP2) and 29 nM on EP4.

For the molecule `CCOc1cc(-c2cc(NCCc3ccc(O)c(OC)c3)ncn2)sc1-c1noc(=O)[nH]1` [Example 118, 3-(3-Ethoxy-5-{6-[2-(4-hydroxy-3-methoxy-phenyl)-ethylamino]-pyrimidin-4-yl}-thiophen-2yl)-[1,2,4]oxadiazol-5(4H)-one], the IC50 on EP2 came to 266 nM; against PTRGER4 (EP4), 316 nM; on PTGER2 (EP2) it was 488 nM; against EP4, 148 nM.

As to `CCOc1cc(-c2cc(NCCc3c(F)cc(Br)cc3F)ncn2)sc1Cc1noc(=O)[nH]1` [Example 138, 3-(5-{6-[2-(4-Bromo-2,6-difluoro-phenyl)-ethylamino]-pyrimidin-4-yl}-3-ethoxy-thiophen-2-ylmethyl)-[1,2,4]oxadiazol-5(4H)-one], the IC50 was 123 nM against EP2, 130 nM against PTRGER4 (EP4), 34 nM at PTGER2 (EP2) and 247 nM at EP4.

As for `Cc1cc(-c2cc(NCCc3c(F)cc(Br)cc3F)ncn2)cc(C)c1O` [Example 250, 4-{6-[2-(4-Bromo-2,6-difluoro-phenyl)-ethylamino]-pyrimidin-4-yl}-2,6-dimethyl-phenol], the IC50 against EP2 was found to be 856 nM; against PTRGER4 (EP4), 169 nM; on PTGER2 (EP2) it was 78 nM; at EP4, 887 nM.
